# Measurements from patent US7507739B2, “6-[(substituted)phenyl]triazolopyrimidines as anticancer agents” (Wyeth, priority 2003, dated 2009).
# What was measured:
# [1] = test system: KB-8-5 cells; experiment: MTS cytotoxicity test with KB-8-5 cells (moderate P-glycoprotein); format: cell-based, human
# Outline: (§1)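 KB (no P-glycoprotein), KB-8-5 (moderate) and KB-V1 (very high) cells seeded at 1000/well, dosed after ~24 hr with nine 2-fold dilutions in quadruplicate, cultured three days at 37 °C. MTS formazan absorbance normalised to a time-0 plate; IC50 is the concentration giving colour yield halfway between maximum and minimum.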
# [2] = test system: KB-V1 cells; experiment: MTS cytotoxicity test with KB-V1 cells (very high P-glycoprotein); format: cell-based, human; conditions: for Ratio VI/KB: IC50 on KB VI cells/IC50 on KB cells
# Outline: as §1
# [3] = test system: tubulin heterodimer; experiment: Competitive binding test, [3H]colchicine; parameters: species or system bovine; conditions: [3H]colchicine 50 nM
# Description: (§2) Medium is RPMI-1640 with L-glutamine, supplemented with 10% heat-inactivated fetal calf serum, 100 units/ml penicillin, and 100 μg/ml streptomycin (Gibco, Grand Island, N.Y.). Microtubule-associated protein (MAP)-rich tubulin, containing about 70% tubulin and 30% MAPs (#ML113), and highly purified tubulin (>99% pure, #TL238), both from bovine brain, are obtained from Cytoskeleton, Inc., Denver, Colo. PEM buffer (80 mM piperazine-N,N′-bis[2-ethanesulfonic acid], pH 6.9, 1 mM ethylene glycol-bis(β-aminoethyl ether)-N,N,N′,N′-tetraacetic acid, 1 mM magnesium chloride) and guanosine 5′-triphosphate (GTP) are also obtained from Cytoskeleton. [3H]paclitaxel, specific activity 14.7 Ci/mmol, is purchased from Moravek Biochemicals (Brea, Calif.). [^3H]vinblastine, specific activity 9.60 Ci/mmol and MicroSpin G-50 columns are obtained from Amersham Biosciences (Piscataway, N.J.). […] Other reagents are obtained from Sigma (St. Louis, Mo.).
# (§3) The binding of examples of this invention to highly purified tubulin is studied by competitive inhibition methods. […] To study possible competition at the taxane site, on the other hand, polymerized tubulin (microtubules) is used because paclitaxel binds preferentially to microtubules.
# Highly purified tubulin is dissolved in PEM buffer without GTP and used at a final concentration of 1.0 to 1.3 mg/ml (10 to 13 μM). […] These solutions are incubated at 24° for 1 hr and then applied to MicroSpin G-50 columns which are centrifuged for 2 min at 3000 rpm in an Eppendorf 5415C microfuge. An aliquot of each column effluent (containing tubulin and bound radioligand) is mixed with scintillation fluid and counted in a liquid scintillation spectrometer. […] The ability of the competitor to inhibit the binding of the radioligand is expressed as a percentage of control binding in the absence of any competitor.
# [4] = test system: microtubules; experiment: Competitive binding test, [3H]paclitaxel; parameters: species or system bovine; conditions: [3H]paclitaxel 2.1 μM, competitor 20 μM (5 μM for unlabeled paclitaxel)
# Description: as §2, §3
# For competition with [^3H]paclitaxel, highly purified tubulin is dissolved in PEM buffer containing 0.75 M glutamate and 25 μM dideoxy-GTP; final protein concentration is 0.25 to 0.35 mg/mL (2.5 to 3.5 μM). These conditions foster the rapid formation of short, stable microtubule polymers (Hamel, E., del Campo, A. A., and Lin, C. M. Stability of tubulin polymers formed with dideoxyguanosine nucleotides in the presence and absence of microtubule-associated proteins. J. Biol. Chem., 259: 2501-2508, 1984). This solution is incubated for 30 min at 37° to allow microtubules to form. Then [^3H]paclitaxel (final concentration of 2.1 μM, 1.2 Ci/mmol) and competitor (final concentration of 20 μM, except 5 μM for unlabeled paclitaxel) are added to aliquots of the polymerized tubulin solution and incubation at 37° is continued for another 30 min. […] The reactions are then centrifuged at top speed in an Eppendorf 5415C microfuge for 20 min at room temperature in order to pellet the microtubule protein. Triplicate aliquots of each supernatant are mixed with scintillation fluid and counted in a liquid scintillation spectrometer. From the amount of radioactivity in the supernatants and the measured total starting radioactivity, the amount of [^3H]paclitaxel bound to pelleted microtubule protein is calculated. The ability of each competitor to inhibit radioligand binding to pelleted protein is expressed as a percent of controls without any competitor.
structure (smiles),measurement,setting,value
"CC[C@]1(O)C[C@H]2CN(CCc3c([nH]c4ccccc34)[C@@](C(=O)OC)(c3cc4c(cc3OC)N(C=O)[C@H]3[C@@](O)(C(=O)OC)[C@H](OC(C)=O)[C@]5(CC)C=CCN6CC[C@]43[C@@H]65)C2)C1 [Vincristine, reference compound]",IC50,"[1]; Homo sapiens, KB-8-5 cells, MTS, read-out: IC50 KB 8.5",72 nM
same,Ratio 8.5/KB,[1]; IC50 on KB 8.5 cells/IC50 on KB cells,11
same,IC50,"[2]; Homo sapiens, KB-V1 cells, MTS",> 1000 nM
same,Ratio VI/KB,[2],>156
same,Ratio VI/KB,[2]; listed as vincristine,> 156
same,"[3H]Colchicine binding, percent of control without competitor, Mean",[3],99%
same,"[3H]Paclitaxel binding, percent of control without competitor, Mean",[4],22%
